Test results: US10238688B2, “Combination therapies for bladder cancer” (GENEDIA BIOTECH CO. LTD., priority 2015, dated 2019)

Tests used:
UM-UC-3 = assay: MTT cell survival / IC50, UM-UC-3 cells; assay type: cell-based, human
Protocol: (§1) The clinical grade of the chemotherapeutics (NCI Dictionary of Cancer Terms) was provided by the First Affiliated Hospital of Harbin Medical University: Pirarubicin (Pi, Wanle, Shenzhen), Paclitaxel (Pa, Taiji, Sichuan), Adriamycin (Ad, Pfizer, Jiangsu), Epirubicin Hydrochloride (EH, Haizheng, Zhejiang), Hydroxycamptothecin (Hy, Lishizhen, Hubei), Cisplatin (Ci, Haosen, Jiangsu), Gemcitabine (Ge, Haosen, Jiangsu) and Mitomycin (Mi, Haizheng, Zhejiang). The drug induced cell death was determined by a thiazolyl […] (MTT, 490 nm reading) based cell proliferation assay in the cultured cells following treatment by various concentrations of drugs for 72 hours. The relative chemoresistance to each drug of all cell lines was calculated with the lowest IC50 as a reference. The overall chemoresistance of each cell line was described as “chemoresistance index”, the numerator of the total relative IC50 to all the drugs over the number of drugs to rank the overall resistance state of each cell line to the six chemotherapeutics collectively.
(§2) The relative IC50 (fold) of each drug of all nine cell lines was normalized to the lowest IC50 in the most sensitive cell line (FIG. 2G), to describe the single drug resistance of cell lines. The overall chemoresistance of each cell line, a “chemoresistance index” (the numerator of the total relative IC50 over the number of drugs) (FIG. 2G) were calculated to rank the overall resistance state of each cell line to this six chemotherapeutics.
(§3) Twenty six-drug combinations at the indicated doses were initially generated through a random number generator (using MATLAB MathWorks©, Natick, Mass., U.S.) (The upper half of Table 1). The cell survival (% over the not drug control) of treated cells was determined and then used for a calculation of the average cumulative cell survival (%, ACS: the sum of cell survival (%) per combination divided by the number of cell lines tested). ACS<30% was used to separate the effective from the not-effective combinations.

[1] = test system: nine cancer-associated signaling pathways; assay: Pearson correlation of collective drug-triggered pathway activities (single drug versus EH/Ci/Mi regimen)
Excerpt: To calculate the correlation coefficients between the two cell lines, the R language statistics function “cor{stats}” was used to generate the correlation matrix between multiple cell lines.
This example then determined the correlation coefficient between the overall activity of these nine pathways and the chemoresistance state of these five cell lines. […] The overall state of activity of these pathways in each cell line are summarized (FIG. 4E) and the correlation coefficient of each pair of cell lines is calculated (FIG. 4F).

[2] = test system: bladder cancer cell lines; assay: Average cumulative cell survival (ACS) over the panel of cell lines tested; assay type: cell-based, human
Protocol: as §1
The “Differential Evolution” algorithm guided experimental optimization (DE) consisted of three iterative operations: generating drug combinations of experimental testing, acquiring the efficacy of the generated drug combinations with biological assays and recalculating further improved drug combinations using a feedback search algorithm. This example first tested twenty drug combinations at randomized doses. These drug combinations were generated from a random integer matrix generator, coded in MATLAB™ language. These twenty drug combinations were then experimentally tested for cancer cell cytotoxicity. The experimental data were then subjected to calculation with a DE algorithm for new drug combinations based on three major mathematical calculations: “Mutation”, “Crossover” and “Selection”. The equations for each step can be found in the main test. The equations for each step are coded in MATLAB™ language.
as §3, with “combinations. Nine of the twenty combinations tested in the 1st round of iteration fell into this category (the lower half of Table 1).” for “combinations.”

Myc/Max pathway = assay: Cignal Finder dual-luciferase pathway reporter, Myc/Max; assay type: cell-based, human; conditions: for Relative activity, Myc/Max reporter: luc/Renluc relative to negative control reporter, single drug at 4 folds vs EH/Ci/Mi combination
Protocol: (§4) The pathway analysis was performed with Qiagen's Cignal Finder Pathway Reporter Array systems according to the manufacturer's instructions. The pathway-focused dual-luciferase reporter construct was a mixture of an inducible transcription factor responsive firefly luciferase reporter and constitutively expressing renilla construct. Transcriptional response element (TRE) sequence response elements to each specific transcriptional factor triggered by the different signaling pathways are positioned before the TATA box of firefly luciferase reporter gene. The extent of activity of the reporter reflects the level of activity of the particular signaling pathway. CMV controlled renilla expression vector is co-transfected into the cell as an internal control. Non-inducible reporter construct that lacks the transcriptional factor binding sequence and could not be induced by any transcription factors is used as a negative control. Cells transfected with CMV directed firefly luciferase reporter gene serve as a positive control. Briefly, cells seeded in 6-well plates were transfected with Cignal finder pathway arrays according to the manufacturer's instructions (Qiagen). Then cells were seeded onto 96-well plates. […] After 6 h of incubation with the different drugs at 37° C., cells were lysed and a dual luciferase assay (for firefly and renilla luciferase) was performed using a PromegaGloMax 20/20 illuminometer. The firefly luciferase activities were normalized over the renilla luciferase activities after background activity determined by luciferase activities of negative controls was subtracted. A triple test of cell survival under these drug doses was also performed by MTT assay following 18 h incubation at 37° C. […]

EJ = assay: MTT cell survival / IC50, EJ cells; assay type: cell-based, human
Protocol: as §1, §2, §3

[3] = test system: DNA Damage response pathway; assay: Cignal Finder dual-luciferase pathway reporter, DNA Damage response (5637, Biu87, UM-UC-3, H-bc, SV-HUC-1); assay type: cell-based, human; design: key to Relative activity, DNA Damage reporter: firefly/renilla ratio, background (negative control) subtracted; conditions: for Relative activity, DNA Damage reporter: luc/Renluc relative to negative control reporter, single drug at 4 folds vs EH/Ci/Mi combination
Protocol: as §4

**Q.** COC12C(COC(N)=O)C3=C(C(=O)C(C)=C(N)C3=O)N1CC1NC12 (stereo not shown) [Mi, [6-Amino-8a-methoxy-5-methyl-4,7-dioxo-1,1a,2,4,7,8,8a,8b-octahydroazireno [2′,3′:3,4]pyrrolo[1,2-a]indol-8-yl]methyl carbamate] was tested. Which “Cell survival (%)” value (UM-UC-3; UM-UC-3, Table S3, ng/ml: Pi 40, Pa 160, EH 250, Ci 1500, Mi 200, 1=Ci/Mi, 2=EH/Ci/Mi, 3=Pa/Ci/Mi, 4=Pi/Ci/Mi) did it give?
**A.** 66.2%

**Q.** And the “Single drug 4X Cell Survival (%)” value (UM-UC-3; UM-UC-3, ng/ml: EH 1000, Ci 6000, Mi 800, Pi 160, Pa 640, Ge 20, EH/Ci/Mi regimen)?
**A.** 54.74%

**Q.** What about the “ACS (%)” value (UM-UC-3; UM-UC-3 cells, Table 4 (B)) of the same molecule?
**A.** 54.71%

**Q.** What about the “Cell survival 72 hours” value (UM-UC-3; Um-Uc-3 cells, Table 4 (A)) of the same molecule?
**A.** 54.71%

**Q.** What about the “Correlation coefficients versus EH/Ci/Mi” value ([1]; 5637 cells) of the same molecule?
**A.** 1

**Q.** What about the “Correlation coefficients versus EH/Ci/Mi” value ([1]; Biu87 cells) of the same molecule?
**A.** 0.982

**Q.** What about the “Correlation coefficients versus EH/Ci/Mi” value ([1]; H-bc cells) of the same molecule?
**A.** −0.2773

**Q.** What about the “Correlation coefficients versus EH/Ci/Mi” value ([1]; SV-HUC-1 cells) of the same molecule?
**A.** 1

**Q.** What about the “Correlation coefficients versus EH/Ci/Mi” value ([1]; UmUc3 cells) of the same molecule?
**A.** 0.982

**Q.** What about the “ACS (%)” value ([2]; eight cell lines, Table S3, ng/ml: Pi 40, Pa 160, EH 250, Ci 1500, Mi 200, 1=Ci/Mi, 2=EH/Ci/Mi, 3=Pa/Ci/Mi, 4=Pi/Ci/Mi) of the same molecule?
**A.** 56.85%

**Q.** And the ACS ([2]; four-fold dosed component drugs alone: Ci 6000 ng/mL, Mi 800 ng/mL, EH 1000 ng/mL (Table S4))?
**A.** 40.49%

**Q.** What about the “ACS (%) for cancer cells” value ([2]; seven cancer cell lines, ng/ml: EH 1000, Ci 6000, Mi 800, Pi 160, Pa 640, Ge 20, EH/Ci/Mi regimen) of the same molecule?
**A.** 40.49%

**Q.** And the “relative drug trigged pathway activity over the no-drug level, Myc/Max” value (Myc/Max pathway; 5637 cells)?
**A.** 1.97 fold

**Q.** What about the “Relative activity, Myc/Max reporter” value (Myc/Max pathway; 5637 cells) of the same molecule?
**A.** 21.77

**Q.** And the “digitalized pathway activity, Myc/Max” value (Myc/Max pathway; Biu87 cells)?
**A.** 0 (null (0) if neither of the above holds)

**Q.** And the “relative drug trigged pathway activity over the no-drug level, Myc/Max” value (Myc/Max pathway; Biu87 cells)?
**A.** 1.16 fold

**Q.** What about the “Relative activity, Myc/Max reporter” value (Myc/Max pathway; Biu87 cells) of the same molecule?
**A.** 9.49

**Q.** What about the “digitalized pathway activity, Myc/Max” value (Myc/Max pathway; H-bc cells) of the same molecule?
**A.** 0 (null (0) if neither of the above holds)

**Q.** And the “relative drug trigged pathway activity over the no-drug level, Myc/Max” value (Myc/Max pathway; H-bc cells)?
**A.** 0.75 fold

**Q.** And the “Relative activity, Myc/Max reporter” value (Myc/Max pathway; H-bc cells)?
**A.** 9.86

**Q.** What about the “digitalized pathway activity, Myc/Max” value (Myc/Max pathway; SV-HUC-1 cells) of the same molecule?
**A.** 0 (null (0) if neither of the above holds)

**Q.** What about the “relative drug trigged pathway activity over the no-drug level, Myc/Max” value (Myc/Max pathway; SV-HUC-1 cells) of the same molecule?
**A.** 1.45 fold

**Q.** And the “Relative activity, Myc/Max reporter” value (Myc/Max pathway; SV-HUC-1 cells)?
**A.** 160.00

**Q.** What about the “Relative activity, Myc/Max reporter” value (Myc/Max pathway; UM-UC-3 cells) of the same molecule?
**A.** 22.41

**Q.** What about the “relative drug trigged pathway activity over the no-drug level, Myc/Max” value (Myc/Max pathway; Um-Uc-3 cells) of the same molecule?
**A.** 0.38 fold

**Q.** And the “Cell survival (%)” value (EJ; Table S3, ng/ml: Pi 40, Pa 160, EH 250, Ci 1500, Mi 200, 1=Ci/Mi, 2=EH/Ci/Mi, 3=Pa/Ci/Mi, 4=Pi/Ci/Mi)?
**A.** 45.2%

**Q.** And the “Single drug 4X Cell Survival (%)” value (EJ; ng/ml: EH 1000, Ci 6000, Mi 800, Pi 160, Pa 640, Ge 20, EH/Ci/Mi regimen)?
**A.** 28.67%

**Q.** What about the “relative drug trigged pathway activity over the no-drug level, DNA Damage” value ([3]; 5637 cells) of the same molecule?
**A.** 2.87 fold

**Q.** What about the “Relative activity, DNA Damage reporter” value ([3]; 5637 cells) of the same molecule?
**A.** 0.63

**Q.** What about the “digitalized pathway activity, DNA Damage” value ([3]; Biu87 cells) of the same molecule?
**A.** 0 (null (0) if neither of the above holds)

**Q.** What about the “relative drug trigged pathway activity over the no-drug level, DNA Damage” value ([3]; Biu87 cells) of the same molecule?
**A.** 1.35 fold

**Q.** And the “Relative activity, DNA Damage reporter” value ([3]; Biu87 cells)?
**A.** 2.03

**Q.** What about the “digitalized pathway activity, DNA Damage” value ([3]; H-bc cells) of the same molecule?
**A.** 0 (null (0) if neither of the above holds)

**Q.** What about the “relative drug trigged pathway activity over the no-drug level, DNA Damage” value ([3]; H-bc cells) of the same molecule?
**A.** 1.08 fold

**Q.** And the “Relative activity, DNA Damage reporter” value ([3]; H-bc cells)?
**A.** 0.73

**Q.** And the “relative drug trigged pathway activity over the no-drug level, DNA Damage” value ([3]; SV-HUC-1 cells)?
**A.** 1.75 fold

**Q.** And the “Relative activity, DNA Damage reporter” value ([3]; SV-HUC-1 cells)?
**A.** 4.20

**Q.** What about the “digitalized pathway activity, DNA Damage” value ([3]; UM-UC-3 cells) of the same molecule?
**A.** 0 (null (0) if neither of the above holds)

**Q.** What about the “Relative activity, DNA Damage reporter” value ([3]; UM-UC-3 cells) of the same molecule?
**A.** 4.77

**Q.** What about the “relative drug trigged pathway activity over the no-drug level, DNA Damage” value ([3]; Um-Uc-3 cells) of the same molecule?
**A.** 1.37 fold
